Reference: patent US10968225B2, “Compounds and compositions for the treatment of cystic fibrosis” (Fondazione Istituto Italiano Di Tecnologia, priority 2017, dated 2021)
pEC50: −log10 of the molar value.

Target: T1, mutant CFTR (Homo sapiens, UniProt P13569, DEL508-508)
T1 construct: expressed in transfected cells
Experiment: Fluorescence (HS-YFP) assay for CFTR activity, corrector assay
Format: cell-based
Details: CFBE41o- and FRT cells with stable expression of mutant CFTR, read-out: activity (EC50)

T1 sequence (P13569 with tags, fused parts or gaps DEL508-508): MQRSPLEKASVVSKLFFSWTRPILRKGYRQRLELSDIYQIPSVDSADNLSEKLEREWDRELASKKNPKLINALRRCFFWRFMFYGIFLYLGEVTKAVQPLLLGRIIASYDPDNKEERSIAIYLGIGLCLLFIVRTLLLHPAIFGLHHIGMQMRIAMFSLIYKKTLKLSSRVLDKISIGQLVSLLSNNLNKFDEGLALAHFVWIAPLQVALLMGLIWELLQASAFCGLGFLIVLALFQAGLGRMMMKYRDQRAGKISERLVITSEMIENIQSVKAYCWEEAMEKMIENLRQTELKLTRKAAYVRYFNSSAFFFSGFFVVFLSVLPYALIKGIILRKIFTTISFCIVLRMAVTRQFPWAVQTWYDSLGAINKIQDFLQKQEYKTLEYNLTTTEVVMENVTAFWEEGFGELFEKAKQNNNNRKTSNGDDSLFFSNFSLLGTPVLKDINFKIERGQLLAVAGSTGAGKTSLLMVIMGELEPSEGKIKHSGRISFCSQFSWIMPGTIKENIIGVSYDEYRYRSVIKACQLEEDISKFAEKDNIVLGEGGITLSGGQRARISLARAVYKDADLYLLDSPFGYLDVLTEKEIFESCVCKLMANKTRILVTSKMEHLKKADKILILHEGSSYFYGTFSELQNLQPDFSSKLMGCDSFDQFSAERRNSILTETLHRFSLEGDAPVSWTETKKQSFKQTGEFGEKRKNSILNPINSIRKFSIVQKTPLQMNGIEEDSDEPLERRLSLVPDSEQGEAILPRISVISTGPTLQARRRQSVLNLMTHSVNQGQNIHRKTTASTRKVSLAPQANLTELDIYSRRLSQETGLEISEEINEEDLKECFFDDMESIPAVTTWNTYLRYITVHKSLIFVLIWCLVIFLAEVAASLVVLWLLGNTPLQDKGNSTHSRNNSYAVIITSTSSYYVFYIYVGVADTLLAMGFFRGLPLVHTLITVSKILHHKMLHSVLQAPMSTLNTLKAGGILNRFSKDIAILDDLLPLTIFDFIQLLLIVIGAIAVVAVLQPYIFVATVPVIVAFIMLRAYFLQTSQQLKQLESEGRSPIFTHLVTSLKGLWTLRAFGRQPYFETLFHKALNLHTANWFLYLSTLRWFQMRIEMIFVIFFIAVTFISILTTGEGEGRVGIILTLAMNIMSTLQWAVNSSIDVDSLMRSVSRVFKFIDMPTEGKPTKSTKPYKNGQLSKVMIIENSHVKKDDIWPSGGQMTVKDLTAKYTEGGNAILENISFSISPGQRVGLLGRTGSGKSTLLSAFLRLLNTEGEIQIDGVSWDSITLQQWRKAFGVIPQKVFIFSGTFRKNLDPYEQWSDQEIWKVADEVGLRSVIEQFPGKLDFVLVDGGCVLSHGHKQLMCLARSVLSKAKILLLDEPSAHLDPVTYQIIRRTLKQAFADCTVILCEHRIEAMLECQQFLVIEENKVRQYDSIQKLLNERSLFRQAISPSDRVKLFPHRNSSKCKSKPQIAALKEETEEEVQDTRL

SMILES	pEC50
CN(C(=O)c1cccc(-n2nc(C(F)(F)F)c3c2C(Oc2cc(C(=O)O)ccn2)COC3)c1)c1ccc2c(c1)OC(F)(F)O2 (racemic) [Compound 231, 2-[[1-[3-[(2,2-Difluoro-1,3-benzodioxol-5-yl)-methyl-carbamoyl]phenyl]-3-(trifluoromethyl)-6,7-dihydro-4H-pyrano[4,3-c]pyrazol-7-yl]oxy]pyridine-4-carboxylic acid]	> 6.00
CN(C(=O)c1cccc(-n2nc(C(F)(F)F)c3c2C(Oc2ccc(C(=O)O)cc2)CCC3)c1)c1cnc2c(c1)OCC2 (racemic) [Compound 259, (rac)-4-[[1-[3-[2,3-Dihydrofuro[3,2-b]pyridin-6-yl(methyl)carbamoyl]phenyl]-3-(trifluoromethyl)-4,5,6,7-tetrahydroindazol-7-yl]oxy]benzoic acid]	> 6.00
CN(C(=O)c1cccc(-n2nc(C(F)(F)F)c3c2C(Oc2cc(C(=O)O)ccn2)CCC3)c1)c1ccc2c(c1)OC(F)(F)O2 (single isomer, unassigned) [Compound 196, (S) or (R)-2-[[1-[3-[(2,2-Difluoro-1,3-benzodioxol-5-yl)-methyl-carbamoyl]phenyl]-3-(trifluoromethyl)-4,5,6,7-tetrahydroindazol-7-yl]oxy]pyridine-4-carboxylic acid]	> 6.00
Cc1noc(C)c1S(=O)(=O)N1CCc2c(c(C(F)(F)F)nn2-c2cccc(C(=O)N(C)c3ccc4c(c3)OC(F)(F)O4)c2)C1 [Compound 096, N-(2,2-Difluoro-1,3-benzodioxol-5-yl)-3-[5-(3,5-dimethylisoxazol-4-yl)sulfonyl-3-(trifluoromethyl)-6,7-dihydro-4H-pyrazolo[4,3-c]pyridin-1-yl]-N-methyl-benzamide]	> 6.00
Cc1[nH]nc(C(=O)O)c1S(=O)(=O)N1CCc2c(c(C(F)(F)F)nn2-c2cccc(C(=O)N(C)c3ccc4c(c3)OCO4)c2)C1 [Compound 089, 4-[[1-[3-[1,3-Benzodioxol-5-yl(methyl)carbamoyl]phenyl]-3-(trifluoromethyl)-6,7-dihydro-4H-pyrazolo[4,3-c]pyridin-5-yl]sulfonyl]-5-methyl-1H-pyrazole-3-carboxylic acid]	> 6.00
CN(C(=O)c1cccc(-n2nc(C(F)(F)F)c3c2C(Oc2ccc(C(=O)O)cc2)CCC3)c1)c1ccc2c(c1)OC(F)(F)O2 (single isomer, unassigned) [Compound 150, (R) or (S)-4-[[1-[3-[(2,2-Difluoro-1,3-benzodioxol-5-yl)-methyl-carbamoyl]phenyl]-3-(trifluoromethyl)-4,5,6,7-tetrahydroindazol-7-yl]oxy]benzoic acid]	> 6.00
CN(C(=O)c1cccc(-n2nc(C(F)(F)F)c3c2CCN(C[C@H](O)CO)C3)c1)c1ccc2c(c1)OCO2 [Compound 016, N-(1,3-Benzodioxol-5-yl)-3-[5-[(2S)-2,3-dihydroxypropyl]-3-(trifluoromethyl)-6,7-dihydro-4H-pyrazolo[4,3-c]pyridin-1-yl]-N-methyl-benzamide]	> 6.00
CN(C(=O)c1cccc(-n2nc(C(F)(F)F)c3c2C(Oc2ccc(C(=O)O)cc2)CCC3)c1)c1cncc(F)c1 (racemic) [Compound 307, (rac)-4-[[1-[3-[(5-fluoro-3-pyridyl)methyl-carbamoyl]phenyl]-3-(trifluoromethyl)-4,5,6,7-tetrahydroindazol-7-yl]oxy]benzoic acid]	< 5.70
CN(C(=O)c1cccc(-n2nc(C(F)(F)F)c3c2C(Oc2ccc(C(=O)O)cc2)COC3)c1)c1ccnc(OC(F)F)c1 (single isomer, unassigned) [Compound 290, (R) or (S)-4-[[1-[3-[[2-(Difluoromethoxy)-4-pyridyl]-methyl-carbamoyl]phenyl]-3-(trifluoromethyl)-6,7-dihydro-4H-pyrano[4,3-c]pyrazol-7-yl]oxy]benzoic acid]	> 6.00
COc1ncc(N(C)C(=O)c2cccc(-n3nc(C(F)(F)F)c4c3CCN(C(=O)C(C)(C)C)C4)c2)cn1 [Compound 142, 3-[5-(2,2-Dimethylpropanoyl)-3-(trifluoromethyl)-6,7-dihydro-4H-pyrazolo[4,3-c]pyridin-1-yl]-N-(2-methoxypyrimidin-5-yl)-N-methyl-benzamide]	< 5.70
